We go through 15 molecules from ChEMBL document CHEMBL4393657, “Tetrazole hybrids and their antifungal activities” (2019).

For orientation: MIC means the smallest concentration in the dilution series that meets the test's criterion for growth inhibition.

In brackets after ≈: the same amount, converted by molar mass.

Format in all cases: functional
The test system of experiment [1] is Aspergillus niger. Description: Antifungal activity against Aspergillus niger.
Experiment [2] has as its system Aspergillus flavus. Description: Antifungal activity against Aspergillus flavus.
Experiment [3] relates to Rhizopus arrhizus. Description: Antifungal activity against Rhizopus arrhizus.
Experiment [4] has as its system Candida albicans. Description: Antifungal activity against Candida albicans.
Experiment [5] relates to Mucor indicus. Description: Antifungal activity against Mucor indicus.
In experiment [6] the test system is Aspergillus niger. In words: Antifungal activity against Aspergillus niger assessed as reduction in fungal cell growth incubated for 48 hrs by broth microdilution method. A general note: Dilution methods test growth across graded concentrations, often in twofold steps.
In experiment [7] the test system is Candida albicans. In words: Antifungal activity against Candida albicans assessed as reduction in fungal cell growth incubated for 48 hrs by broth microdilution method.
The subject of experiment [8] is Candida parapsilosis. In words: Antifungal activity against Candida parapsilosis ATCC 22019 assessed as reduction in fungal cell growth incubated for 48 hrs by broth microdilution method. Particulars: Lodderomyces parapsilosis, ATCC 22019, 48 h.
For experiment [9], the system named is Candida tropicalis. Description: Antifungal activity against Candida tropicalis assessed as reduction in fungal cell growth incubated for 48 hrs by broth microdilution method.
Experiment [10] relates to Candida albicans. Description: Antifungal activity against Candida albicans V-01-191A-261 assessed as reduction in fungal cell growth incubated for 48 hrs by broth microdilution method. Particulars: V-01-191A-261, 48 h.
Experiment [11] has as its system Pichia kudriavzevii. In words: Antifungal activity against Candida krusei assessed as reduction in fungal cell growth incubated for 48 hrs by broth microdilution method.
Experiment [12] relates to Cryptococcus neoformans. In words: Antifungal activity against Cryptococcus neoformans LA314 assessed as reduction in fungal cell growth incubated for 48 hrs by broth microdilution method. To be noted: LA314, 48 h.
Experiment [13] relates to Aspergillus niger. Description: Antifungal activity against Aspergillus niger assessed as reduction in fungal cell growth incubated for 72 hrs by broth microdilution method.
The test system of experiment [14] is Nakaseomyces glabratus. In words: Antifungal activity against Candida glabrata assessed as reduction in fungal cell growth incubated for 48 hrs by broth microdilution method.
Experiment [15] deals with Aspergillus fumigatus. Description: Antifungal activity against Aspergillus fumigatus NCIM 902 assessed as reduction in fungal cell growth incubated for 3 to 4 days by disk diffusion method.
Experiment [16] deals with Talaromyces marneffei. Description: Antifungal activity against Penicillium marneffei assessed as reduction in fungal cell growth incubated for 3 to 4 days by disk diffusion method. A general note: A growth-free zone around the sample is the usual read-out of agar diffusion tests.
Experiment [17] relates to Aspergillus flavus. Description: Antifungal activity against Aspergillus flavus NCIM 524 assessed as reduction in fungal cell growth incubated for 3 to 4 days by disk diffusion method.
Experiment [18] relates to Trichophyton mentagrophytes. Description: Antifungal activity against Trichophyton mentagrophytes assessed as reduction in fungal cell growth incubated for 3 to 4 days by disk diffusion method.
For experiment [19], the system named is Nakaseomyces glabratus. Description: Antifungal activity against Candida glabrata assessed as reduction in fungal cell growth incubated for 24 hrs by broth microdilution method.
The test system of experiment [20] is Pichia kudriavzevii. In words: Antifungal activity against Candida krusei assessed as reduction in fungal cell growth incubated for 24 hrs by broth microdilution method.
Experiment [21] has as its system Candida albicans. In words: Antifungal activity against Candida albicans assessed as reduction in fungal cell growth incubated for 24 hrs by broth microdilution method.
The test system of experiment [22] is Candida tropicalis. Description: Antifungal activity against Candida tropicalis assessed as reduction in fungal cell growth incubated for 24 hrs by broth microdilution method.
Experiment [23] deals with Nakaseomyces glabratus. Description: Antifungal activity against Candida glabrata ATCC 36583 by broth microdilution method.
In experiment [24] the test system is Candida tropicalis. In words: Antifungal activity against Candida tropicalis by broth microdilution method.
For experiment [25], the system named is Nakaseomyces glabratus. In words: Potency index, ratio for MIC of fluconazole to MIC of compound for antifungal activity against Candida glabrata NCIM 3236 assessed as reduction in fungal cell growth incubated for 24 hrs by broth microdilution method.
Experiment [26] has as its system Candida tropicalis. In words: Potency index, ratio for MIC of fluconazole to MIC of compound for Antifungal activity against Candida tropicalis NCIM 3110 assessed as reduction in fungal cell growth incubated for 24 hrs by broth microdilution method.
Experiment [27] has as its system Candida albicans. Description: Antifungal activity against Candida albicans MTCC 227 assessed as reduction in fungal cell growth incubated for 24 hrs by broth microdilution method. To be noted: MTCC 227, 24 h.
Experiment [28] concerns Candida tropicalis. In words: Antifungal activity against Candida tropicalis NCIM 3110 assessed as reduction in fungal cell growth incubated for 48 hrs by broth microdilution method. To be noted: NCIM 3110, 48 h.
The subject of experiment [29] is Nakaseomyces glabratus. In words: Antifungal activity against Candida glabrata NCIM 3236 assessed as reduction in fungal cell growth incubated for 24 hrs by broth microdilution method. Particulars: NCIM 3236, 24 h.

On to `O=C(O)c1cn(C2CC2)c2nc(N3CCN(CC(=O)c4nnnn4-c4ccccc4)CC3)c(F)cc2c1=O`, for which the MIC in experiment [1], in experiment [2], in experiment [3], in [4] and in experiment [5] was 6.25 to 100 µg/mL (≈ 12.1 to 193 µM) in each case.

Regarding `S=c1[nH]c2c(c3nnnn13)C(c1ccc(Cl)cc1)c1ccc3ccccc3c1O2` (stereo not given), the minimal inhibitory concentration (MIC) in experiment [6] and in experiment [7] was 50 to 400 µg/mL (≈ 120 to 957 µM) each time.

As for `CC[C@@H]([C@H](C)O)n1ncn(-c2ccc(N3CCN(c4ccc(OC[C@@H]5CO[C@@](Cn6cncn6)(c6ccc(F)cc6F)C5)cc4)CC3)cc2)c1=O` [POSACONAZOLE], the minimal inhibitory concentration (MIC) in experiment [8], in experiment [9], in [10], in experiment [11], in experiment [12] and in experiment [13] was 0.12 to 1 µg/mL (≈ 0.171 to 1.43 µM) each time. Further, the minimal inhibitory concentration (MIC) in experiment [14] was in the range of 0.12 to 1 µg/mL (≈ 0.171 to 1.43 µM).

With `Fc1ccc(C2c3ccc4ccccc4c3Oc3[nH]c(=S)n4nnnc4c32)cc1` (stereo not given), the MIC in experiment [6] and in experiment [7] was 50 to 400 µg/mL (≈ 125 to 996 µM) each time.

In the case of `CCC(C)n1ncn(-c2ccc(N3CCN(c4ccc(OCC5COC(Cn6cncn6)(c6ccc(Cl)cc6Cl)O5)cc4)CC3)cc2)c1=O` (stereo not given) [ITRACONAZOLE], the MIC in experiment [8] was 0.007 to 0.5 µg/mL (≈ 0.00992 to 0.709 µM); in experiment [15], 6.25 µg/mL (≈ 8.86 µM); in experiment [9] it was 0.007 to 0.5 µg/mL (≈ 0.00992 to 0.709 µM); in [11] it was 0.007 to 0.5 µg/mL (≈ 0.00992 to 0.709 µM); in experiment [16], 6.25 µg/mL (≈ 8.86 µM); in [12] it was 0.007 to 0.5 µg/mL (≈ 0.00992 to 0.709 µM). Further, the minimum inhibitory concentration (MIC) was 6.25 µg/mL (≈ 8.86 µM) in experiment [17]; 0.007 to 0.5 µg/mL (≈ 0.00992 to 0.709 µM) in experiment [13]; 6.25 µg/mL (≈ 8.86 µM) in [18]; 0.007 to 0.5 µg/mL (≈ 0.00992 to 0.709 µM) in experiment [7]; 0.007 to 0.5 µg/mL (≈ 0.00992 to 0.709 µM) in experiment [14].

As to `S=c1[nH]c2c(c3nnnn13)C(c1ccccc1)c1ccc3ccccc3c1O2` (stereo not given), the MIC in [6] and in [7] was 50 to 400 µg/mL (≈ 130 to 1040 µM) each time.

As to `O=C(O)c1cn(C2CC2)c2nc(N3CCN(CC(=O)c4nnnn4-c4ccc(Br)cc4)CC3)c(F)cc2c1=O`, the minimum inhibitory concentration (MIC) in experiment [1], in [2], in [3], in experiment [4] and in experiment [5] was 6.25 to 100 µg/mL (≈ 10.5 to 167 µM) each time.

`O=C(O)c1cn(C2CC2)c2nc(N3CCN(CC(=O)c4nnnn4-c4ccc([N+](=O)[O-])cc4)CC3)c(F)cc2c1=O`: the minimal inhibitory concentration (MIC) was 6.25 µg/mL (≈ 11.1 µM) in [1]; 6.25 to 100 µg/mL (≈ 11.1 to 177 µM) in [2]; 6.25 to 100 µg/mL (≈ 11.1 to 177 µM) in [3]; 6.25 to 100 µg/mL (≈ 11.1 to 177 µM) in experiment [4]; 6.25 to 100 µg/mL (≈ 11.1 to 177 µM) in experiment [5].

With `Fc1cc2nc(SCc3ccc(-c4ccccc4-c4nnnn4C(c4ccccc4)(c4ccccc4)c4ccccc4)cc3)[nH]c2cc1-n1ccnc1`, the MIC in experiment [19], in experiment [20], in [21] and in experiment [22] was 8 to 16 µg/mL (≈ 11.3 to 22.5 µM) in each case.

Consider `CCn1nnnc1SCCCSc1nnnn1-c1ccccc1`, for which the minimum inhibitory concentration (MIC) in experiment [15], in experiment [16], in experiment [17] and in experiment [18] was 6.25 to 50 µg/mL (≈ 17.9 to 143 µM) in each case.

On to `Cn1c(-c2ccc(NC(=O)CSc3nnnn3-c3ccccc3)cc2)nc2cc(Cl)c(Cl)cc21`, for which the minimal inhibitory concentration (MIC) in [23], in experiment [24] and in experiment [4] was 25 to 50 µg/mL (≈ 49 to 98 µM) throughout.

In the case of `O=C(O)c1cn(C2CC2)c2nc(N3CCN(CC(=O)c4nnnn4-c4ccc(F)cc4)CC3)c(F)cc2c1=O`, the MIC was 6.25 µg/mL (≈ 11.6 µM) in experiment [1]; 6.25 to 100 µg/mL (≈ 11.6 to 186 µM) in [2]; 6.25 to 100 µg/mL (≈ 11.6 to 186 µM) in [3]; 6.25 to 100 µg/mL (≈ 11.6 to 186 µM) in experiment [4]; 6.25 to 100 µg/mL (≈ 11.6 to 186 µM) in experiment [5].

Consider `COc1ccc(-n2nnnc2C(=O)CN2CCN(c3nc4c(cc3F)c(=O)c(C(=O)O)cn4C3CC3)CC2)cc1`, for which the MIC in [1], in [2], in experiment [3], in [4] and in experiment [5] was 6.25 to 100 µg/mL (≈ 11.4 to 182 µM) throughout.

For `O=c1c(OCc2nnn[nH]2)c(-c2ccc(F)cc2)oc2ccccc12`, the Ratio in [25] and in experiment [26] was 16 - 64 each time. Besides, the minimal inhibitory concentration (MIC) in [27] lay in the range of 12.5 to 25 µg/mL (≈ 36.9 to 73.9 µM); in [28] it was 12.5 to 50 µg/mL (≈ 36.9 to 148 µM); in [29] it was 12.5 to 50 µg/mL (≈ 36.9 to 148 µM).

`Cc1cc2oc(-c3ccc(F)cc3)c(OCc3nnn[nH]3)c(=O)c2cc1Cl`: the Ratio in experiment [25] and in [26] was 16 - 64 throughout. Moreover, the minimal inhibitory concentration (MIC) lay within 12.5 to 25 µg/mL (≈ 32.3 to 64.6 µM) in [27], 12.5 to 50 µg/mL (≈ 32.3 to 129 µM) in experiment [28] and 12.5 to 50 µg/mL (≈ 32.3 to 129 µM) in experiment [29].
